According to patent US20130324412A1, “N-ALKOXYAMIDES OF 6-(SUBSTITUTED PHENYL)-4-AMINOPICOLINATES AND 2-(SUBSTITUTED PHENYL)-6-AMINO-4-PYRIMIDINECARBOXYLATES AND THEIR USE AS SELECTIVE HERBICIDES FOR CROPS” (DOW AGROSCIENCES LLC, priority 2009, published 2013):

Tests used:
Assay type in all cases: in vivo
[1] = tested on: wild buckwheat (Polygonum convululus); assay: General postemergence herbicidal activity, wild buckwheat; settings: post-emergence, 336 h, postemergence, after 14 d, 0 = no injury, 100 = complete kill, read-out: POLCO % Visual Injury; for pest or weed control at 70 g/ha: 70 g ai/ha; for pest or weed control at 140 g/ha: 140 g ai/ha; for pest or weed control at 35 g/ha: 35 g ai/ha; for pest or weed control at 280 g/ha: 280 g ai/ha
Protocol: (§1) Seeds or nutlets of the desired test plant species were planted in Sun Gro MetroMix® 360 planting mixture, which typically has a pH of 6.0 to 6.8 and an organic matter content of about 30 percent, in plastic pots with a surface area of 64 square centimeters (cm^2). When required to ensure good germination and healthy plants, a fungicide treatment and/or other chemical or physical treatment was applied. The plants were grown for 7-21 days (d) in a greenhouse with an approximate 15-hour (h) photoperiod which was maintained at about 23-29° C. during the day and 22-28° C. during the night. Nutrients and water were added on a regular basis and supplemental lighting was provided with overhead metal halide 1000-Watt lamps as necessary. The plants were employed for testing when they reached the first or second true leaf stage.
(§2) A weighed amount, determined by the highest rate to be tested, of each test compound was dissolved in 4 mL of a 97:3 volume per volume (v/v) mixture of acetone and dimethyl sulfoxide (DMSO) to obtain concentrated stock solutions. […] The concentrated stock solutions obtained were diluted with 20 mL of an aqueous mixture containing acetone, water, isopropyl alcohol, DMSO, Atplus 411F crop oil concentrate, and Triton X-155 surfactant in a 48.5:39:10:1.5:1.0:0.02 v/v ratio to obtain spray solutions containing the highest application rates. Additional application rates were obtained by serial dilution of 12 mL of the high rate solution into a solution containing 2 mL of 97:3 v/v mixture of acetone and DMSO and 10 mL of an aqueous mixture containing acetone, water, isopropyl alcohol, DMSO, Atplus 411F crop oil concentrate, and Triton X-155 surfactant in a 48.5:39:10:1.5:1.0:0.02 v/v ratio to obtain ½×, ¼×, ⅛× and 1/16× rates of the high rate. Compound requirements are based upon a 12 mL application volume at a rate of 187 liters per hectare (L/ha). Formulated compounds were applied to the plant material with an overhead Mandel track sprayer equipped with 8002E nozzles calibrated to deliver 187 L/ha over an application area of 0.503 square meters (m^2) at a spray height of 18 inches (43 cm) above the average plant canopy height. Control plants were sprayed in the same manner with the solvent blank.
(§3) The treated plants and control plants were placed in a greenhouse as described above and watered by sub-irrigation to prevent wash-off of the test compounds. After 14 d, the condition of the test plants as compared with that of the untreated plants was determined visually and scored on a scale of 0 to 100 percent where 0 corresponds to no injury and 100 corresponds to complete kill.

[2] = tested on: corn (Zea mays); assay: General postemergence herbicidal activity, corn; settings: post-emergence, 336 h, postemergence, after 14 d, 0 = no injury, 100 = complete kill, read-out: ZEAMX % Visual Injury; for plant injury at 70 g/ha: 70 g ai/ha; for plant injury at 140 g/ha: 140 g ai/ha; for plant injury at 35 g/ha: 35 g ai/ha; for plant injury at 280 g/ha: 280 g ai/ha
Protocol: as §1, §2, §3

[3] = tested on: velvetleaf (Abutilon theophrasti); assay: General postemergence herbicidal activity, velvetleaf; settings: post-emergence, 336 h, postemergence, after 14 d, 0 = no injury, 100 = complete kill, read-out: ABUTH % Visual Injury; for pest or weed control at 70 g/ha: 70 g ai/ha; for pest or weed control at 140 g/ha: 140 g ai/ha; for pest or weed control at 35 g/ha: 35 g ai/ha; for pest or weed control at 280 g/ha: 280 g ai/ha
Protocol: as §1, §2, §3

[4] = tested on: lambsquarters (Chenopodium album); assay: General postemergence herbicidal activity, lambsquarters; settings: post-emergence, 336 h, postemergence, after 14 d, 0 = no injury, 100 = complete kill, read-out: CHEAL % Visual Injury; for pest or weed control at 70 g/ha: 70 g ai/ha; for pest or weed control at 140 g/ha: 140 g ai/ha; for pest or weed control at 35 g/ha: 35 g ai/ha; for pest or weed control at 280 g/ha: 280 g ai/ha
Protocol: as §1, §2, §3

What does the source list for `COc1c(Cl)ccc(-c2cc(N)c(Cl)c(C(=O)NOc3ccccc3)n2)c1F` [Compound 20, 4-Amino-3-chloro-6-(4-chloro-2-fluoro-3-methoxyphenyl)-N-phenoxypicolinamide]?
pest or weed control at 70 g/ha [1]: 100%; plant injury at 70 g/ha [2]: 25%; pest or weed control at 70 g/ha [3]: 100%; pest or weed control at 70 g/ha [4]: 95%

With `COc1c(Cl)ccc(-c2cc(N)c(Cl)c(C(=O)NOC(C)(C)C)n2)c1F` [Compound 21, 4-Amino-N-tert-butoxy-3-chloro-6-(4-chloro-2-fluoro-3-methoxyphenyl)picolinamide] as the molecule, how does the pest or weed control at 140 g/ha [1] read?
The pest or weed control at 140 g/ha was 95%.

What about the plant injury at 140 g/ha [2] of the same molecule?
Its plant injury at 140 g/ha is 0%.

What about the pest or weed control at 140 g/ha [3] of the same molecule?
Its pest or weed control at 140 g/ha is 100%.

And the pest or weed control at 140 g/ha [4]?
Its pest or weed control at 140 g/ha is 95%.

What does the source list for `COc1c(Cl)ccc(-c2cc(N)c(Cl)c(C(=O)NOCc3ccc(F)cc3)n2)c1F` [Compound 22, 4-Amino-3-chloro-6-(4-chloro-2-fluoro-3-methoxyphenyl)-N-(4-fluoro-benzyloxy)picolinamide]?
pest or weed control at 35 g/ha [1]: 100%; plant injury at 35 g/ha [2]: 10%; pest or weed control at 35 g/ha [3]: 100%; pest or weed control at 35 g/ha [4]: 100%

Which results are given for `COc1ccc(CONC(=O)c2nc(-c3ccc(Cl)c(OC)c3F)cc(N)c2Cl)cc1` [Compound 23, 4-Amino-3-chloro-6-(4-chloro-2-fluoro-3-methoxyphenyl)-N-(4-methoxy-benzyloxy)picolinamide]?
pest or weed control at 70 g/ha [1]: 100%; plant injury at 70 g/ha [2]: 15%; pest or weed control at 70 g/ha [3]: 100%; pest or weed control at 70 g/ha [4]: 100%

`COc1c(Cl)ccc(-c2cc(N)c(Cl)c(C(=O)N(C)O)n2)c1F` [Compound 24, 4-Amino-3-chloro-6-(4-chloro-2-fluoro-3-methoxyphenyl)-N-hydroxy-N-methylpicolinamide] was tested. Which pest or weed control at 70 g/ha [1] did it give?
The pest or weed control at 70 g/ha was 80%.

What about the plant injury at 70 g/ha [2] of the same molecule?
Its plant injury at 70 g/ha is 50%.

And the pest or weed control at 70 g/ha [3]?
Its pest or weed control at 70 g/ha is 90%.

And the pest or weed control at 70 g/ha [4]?
Its pest or weed control at 70 g/ha is 95%.

`C=CCONC(=O)c1nc(-c2ccc(Cl)c(OC)c2F)nc(N)c1Cl` [Compound 25, N-(2-Propenyloxy)-6-amino-5-chloro-2-(4-chloro-2-fluoro-3-methoxyphenyl)pyrimidine-4-carboxamide] was tested. Which pest or weed control at 8.75 g/ha ([1]; 8.75 g ai/ha) did it give?
Its pest or weed control at 8.75 g/ha is 100%.

And the plant injury at 8.75 g/ha ([2]; 8.75 g ai/ha)?
Its plant injury at 8.75 g/ha is 60%.

What about the pest or weed control at 8.75 g/ha ([3]; 8.75 g ai/ha) of the same molecule?
Its pest or weed control at 8.75 g/ha is 90%.

What about the pest or weed control at 8.75 g/ha ([4]; 8.75 g ai/ha) of the same molecule?
Its pest or weed control at 8.75 g/ha is 100%.

With `C=CCON(C)C(=O)c1nc(-c2ccc(Cl)c(OC)c2F)cc(N)c1Cl` [Compound 26, N-(2-Propenyloxy)-4-amino-3-chloro-6-(4-chloro-2-fluoro-3-methoxyphenyl)-N-methylpicolinamide] as the molecule, how does the pest or weed control at 140 g/ha [1] read?
Its pest or weed control at 140 g/ha is 95%.

And the plant injury at 140 g/ha [2]?
The plant injury at 140 g/ha was 0%.

And the pest or weed control at 140 g/ha [3]?
The pest or weed control at 140 g/ha was 95%.

And the pest or weed control at 140 g/ha [4]?
Its pest or weed control at 140 g/ha is 100%.

With `C=CCONC(=O)c1nc(Cl)cc(N)c1Cl` [Compound 27, N-(2-Propenyloxy)-4-amino-3,6-dichloropicolinamide] as the molecule, how does the pest or weed control at 280 g/ha [1] read?
The pest or weed control at 280 g/ha was 100%.

And the plant injury at 280 g/ha [2]?
The plant injury at 280 g/ha was 0%.

What about the pest or weed control at 280 g/ha [3] of the same molecule?
The pest or weed control at 280 g/ha was 35%.

What about the pest or weed control at 280 g/ha [4] of the same molecule?
The pest or weed control at 280 g/ha was 100%.

Which pest or weed control at 35 g/ha [1] does the source give for `C=C(Cl)CONC(=O)c1nc(-c2ccc(Cl)c(OC)c2F)cc(N)c1Cl` [Compound 29, 4-Amino-3-chloro-6-(4-chloro-2-fluoro-3-methoxyphenyl)-N-(2-chloro-2-propenyl-oxy)picolinamide] here?
Its pest or weed control at 35 g/ha is 100%.

What about the plant injury at 35 g/ha [2] of the same molecule?
Its plant injury at 35 g/ha is 50%.

And the pest or weed control at 35 g/ha [3]?
Its pest or weed control at 35 g/ha is 100%.

What about the pest or weed control at 35 g/ha [4] of the same molecule?
The pest or weed control at 35 g/ha was 100%.

How did the pest or weed control at 35 g/ha [1] turn out when `COc1c(Cl)ccc(-c2cc(N)c(Cl)c(C(=O)NOCC3CC3)n2)c1F` [Compound 32, 4-Amino-3-chloro-6-(4-chloro-2-fluoro-3-methoxyphenyl)-N-(cyclopropyl-methoxy)picolinamide] was run?
Its pest or weed control at 35 g/ha is 100%.

What about the plant injury at 35 g/ha [2] of the same molecule?
The plant injury at 35 g/ha was 10%.

And the pest or weed control at 35 g/ha [3]?
The pest or weed control at 35 g/ha was 100%.

And the pest or weed control at 35 g/ha [4]?
Its pest or weed control at 35 g/ha is 100%.

Which pest or weed control at 70 g/ha [1] does the source give for `C=CC(C)ONC(=O)c1nc(-c2ccc(Cl)c(OC)c2F)cc(N)c1Cl` (stereo not drawn) [Compound 33, 4-Amino-N-(but-3-en-2-yloxy)-3-chloro-6-(4-chloro-2-fluoro-3-methoxy-phenyl)picolinamide] here?
The pest or weed control at 70 g/ha was 100%.

What about the plant injury at 70 g/ha [2] of the same molecule?
Its plant injury at 70 g/ha is 10%.

What about the pest or weed control at 70 g/ha [3] of the same molecule?
Its pest or weed control at 70 g/ha is 100%.

What about the pest or weed control at 70 g/ha [4] of the same molecule?
Its pest or weed control at 70 g/ha is 100%.

Which pest or weed control at 280 g/ha [1] does the source give for `Nc1cc(Cl)nc(C(=O)NOCc2ccc(F)cc2)c1Cl` [Compound 34, 4-Amino-3,6-dichloro-N-(4-fluorobenzyloxy)picolinamide] here?
Its pest or weed control at 280 g/ha is 100%.

And the plant injury at 280 g/ha [2]?
Its plant injury at 280 g/ha is 20%.

And the pest or weed control at 280 g/ha [3]?
Its pest or weed control at 280 g/ha is 65%.

What about the pest or weed control at 280 g/ha [4] of the same molecule?
Its pest or weed control at 280 g/ha is 100%.

For `C=CCONC(=O)c1nc(-c2ccc(Cl)c(OC)c2F)nc(N)c1OC` [Compound 35, N-(2-Propenyloxy)-6-amino-2-(4-chloro-2-fluoro-3-methoxyphenyl)-5-methoxypyrimidine-4-carboxamide], which pest or weed control at 140 g/ha [1] is on record?
The pest or weed control at 140 g/ha was 90%.

What about the plant injury at 140 g/ha [2] of the same molecule?
Its plant injury at 140 g/ha is 20%.

What about the pest or weed control at 140 g/ha [3] of the same molecule?
Its pest or weed control at 140 g/ha is 100%.

And the pest or weed control at 140 g/ha [4]?
Its pest or weed control at 140 g/ha is 100%.

For `C=C(F)CONC(=O)c1nc(-c2ccc(Cl)c(OC)c2F)cc(N)c1Cl` [Compound 37, 4-Amino-3-chloro-6-(4-chloro-2-fluoro-3-methoxyphenyl)-N-(2-fluoro-2-propenyl-oxy)picolinamide], which pest or weed control at 17.5 g/ha ([1]; 17.5 g ai/ha) is on record?
Its pest or weed control at 17.5 g/ha is 100%.

And the plant injury at 17.5 g/ha ([2]; 17.5 g ai/ha)?
Its plant injury at 17.5 g/ha is 25%.

What about the pest or weed control at 17.5 g/ha ([3]; 17.5 g ai/ha) of the same molecule?
Its pest or weed control at 17.5 g/ha is 100%.

And the pest or weed control at 17.5 g/ha ([4]; 17.5 g ai/ha)?
Its pest or weed control at 17.5 g/ha is 100%.

Which results are given for `C=CCCONC(=O)c1nc(-c2ccc(Cl)c(OC)c2F)cc(N)c1Cl` [Compound 38, 4-Amino-N-(3-butenyloxy)-3-chloro-6-(4-chloro-2-fluoro-3-methoxyphenyl)picolinamide]?
pest or weed control at 35 g/ha [1]: 100%; plant injury at 35 g/ha [2]: 35%; pest or weed control at 35 g/ha [3]: 100%; pest or weed control at 35 g/ha [4]: 100%
